This is an account of results in patent US7273458B2, “Method of applying acoustic energy effective to alter transport or cell viability” (Georgia Tech Research Corporation, priority 1998, dated 2007).

The subject of this assay is Prostate tumor cells (DU-145). The experiment in a line: Ultrasound-mediated uptake of fluorescent markers into prostate tumor cells (flow cytometry). It counts as cell-based. The note with it: for time decay constant τ of average uptake versus time of addition after exposure: exponential fit, calcein added ≧15 s after exposure. The method, then: Prostate tumor cells (DU-145) were suspended in RPMI-1640 medium with 10% fetal bovine serum at 5×10^5 cells/ml. For each experimental condition, a 3 ml polypropylene tube was filled with the cell suspension at room temperature (22±2° C.) and the top of the tube was closed without entrapping any air bubbles. The cells were exposed to ultrasound at 24 kHz in a chamber that consisted of a cylindrical piezoelectric transducer sandwiched between two PVC pipes and filled with deionized and degassed water at room temperature. Pressure, pulse length, duty cycle, and the total exposure time of ultrasound exposure were controlled. Acoustic spectra during exposure were collected using a hydrophone placed in the exposure chamber. Calcein, a green-fluorescent membrane-impermeant marker, dissolved in saline, was added to the suspensions either before or at various times after exposure at a final concentration of 10 μM. Other fluorescent markers, with different sizes, were also used to determine membrane permeability. The cells were kept at room temperature for 15 minutes after exposure, and then placed on ice until they were centrifuged and resuspended in phosphate-buffered saline with 0.1 mg/ml of propidium iodide (a red-fluorescence viability stain). Cell-by-cell fluorescence was measured using flow cytometry, and 6 μm green-fluorescence microspheres were added to each sample at a constant concentration to provide an internal volumetric standard for determining concentrations of viable cells.

For the compound bovine serum albumen [BSA], the “average uptake of molecules per exposed cell, less than that of calcein” value (same external concentration (10 μM), exposure conditions of FIG. 7, P=8.0 atm) is “about 60 % less”.
Take `O=C(O)CN(CC(=O)O)Cc1cc2c(cc1O)Oc1cc(O)c(CN(CC(=O)O)CC(=O)O)cc1C21OC(=O)c2ccccc21` [calcein]: the “uptake when added after ultrasound exposure (lifetime of membrane disruptions)” value (calcein added at different times after exposure) is listed as “significant uptake occurred for up to two minutes after exposure”. For the same compound, the “average uptake when added 15 sec. after exposure compared to added before exposure” value (examined pressures 5.3, 7.1 and 8.0 atm) is given as “about 50 % less”. In addition, the “time decay constant τ of average uptake versus time of addition after exposure” value is 78 s (incident pressure 5.3 atm), 66 s (incident pressure 7.1 atm) and 56 s (incident pressure 8.0 atm). Moreover, the “average cellular calcein uptake, plateau” value (ultrasound 24 kHz, increasing peak incident pressure, 20 pulses of 0.1 sec, 10% duty cycle, calcein 10 μM added before exposure) was 20-25 % of external calcein concentration.
